Results from patent US20150328329A1, “LIGANDS THAT TARGET HCV-E2 BINDING SITES ON CD81 AND THERAPEUTIC METHODS USING THEM” (American University of Cairo, priority 2012, published 2015).

What was measured:
recombinant CD81-LEL = molecular target: T1, recombinant CD81-LEL (Homo sapiens, UniProt P60033); experiment: SPR (Biacore T100) binding of additional ligands to immobilized CD81-LEL (Example 6); conditions: Table E, ligand 200 uM in PBS-1% DMSO
T1 construct: the large extracellular loop of CD81 (CD81-LEL); GST; His; Shoshana Levy Lab, Stanford (gift)
T1 sequence (P60033 113-201 limits assumed): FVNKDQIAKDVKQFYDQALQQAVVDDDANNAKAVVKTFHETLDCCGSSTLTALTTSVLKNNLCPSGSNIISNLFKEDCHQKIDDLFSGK
Description: SPR analysis was performed using a Biacore T100 workstation (GE Healthcare, NJ, USA). A recombinant form of the CD81-LEL protein with a GST-tag (Shoshana Levy Lab-Stanford) was used to determine the binding affinities of the ligands in the above list. 10 uM CD81-LEL-His diluted into 10 mM sodium acetate buffer pH 4.5 was immobilized for […] at a flow speed of 5 ul/min onto a CM5 sensor chip using amine coupling (EDC-NHS). Approximately 20,000 RU of protein were immobilized on the chip. The ligands were prepared as 200 uM solutions in PBS-1% DMSO (the running buffer) and they were introduced to the protein using a pre-programmed 3 min association and 1 min dissociation interval. Ligands that bind have a positive RU (response units) number and the strength of binding to the CD81 protein is related to the magnitude of the RU number; the larger the number the more binding.

[1] = molecular target: T2, native CD81 on Raji cells (Homo sapiens, UniProt P60033); experiment: Competition assay: inhibition of FITC-labeled JS-81 anti-CD81 antibody binding to native CD81 on live Raji cells (flow cytometry); format: cell-based
T2 construct: endogenous in cells; host or cells: Raji (human B cell line)
T2 sequence (P60033 1-236): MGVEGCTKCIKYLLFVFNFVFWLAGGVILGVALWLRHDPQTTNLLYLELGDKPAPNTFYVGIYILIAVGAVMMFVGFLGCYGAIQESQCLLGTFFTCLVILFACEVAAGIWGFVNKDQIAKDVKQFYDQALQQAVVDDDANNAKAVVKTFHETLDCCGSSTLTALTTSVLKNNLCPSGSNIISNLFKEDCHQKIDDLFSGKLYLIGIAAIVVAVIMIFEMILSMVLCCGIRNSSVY
Excerpt: A subset of these ligands and some of those listed in the patent have been tested to identify those ligands that bind to the correct region of the CD81 protein and for binding to native CD81 on living cells (a Raji cell line). This assay tests three concentrations of the ligand to determine if the ligand is capable of inhibiting the binding of an antibody called JS-81. This antibody is known to bind to the region of the CD81 protein we have targeted. If the ligand decreases JS-81 binding as you increase the concentration of the ligand, it is 1) binding to native CD81 on the Raji cells and 2) it is binding to the correct region of the protein.
For antibody neutralization assay Raji cells were used, a human B cell line that expressed high amounts of CD81 on the surface (data not shown). Cells were grown in RPMI medium (10% FCS, 1% penicillin/streptomycin, 1% L-glutamine, 1% non-essential amino acids, 1% sodium pyruvate, pH 7.4, at 37° C. with 5% CO2). 2×10^5 cells were incubated with or without different concentrations (50 μM, 100 μM, 400 μM and 1 mM) of indicated inhibitor for 20 min at room temperature, subsequently 1 ul (16 ng/μl) of FITC-labeled anti CD81 antibody (BD Pharmingen, 551108) was added to the cells and incubated for 20 min (antibody titration was performed to obtain a working dilution range, data not shown). Cells were washed and analyzed by flow cytometry using fluorescence-activated cell sorting (FACS) (BD FACSCalibur, software: Cell Quest Pro). Mean Fluorescence Intensity MFI was calculated using Flowjo software (TreesStar, www.flowjo.com).

| Binding (RU) (recombinant CD81-LEL) | Compound | further results |
| --- | --- | --- |
| 5.4 | O=c1[nH]c2ccccc2n1C1=CCNCC1 [Ligand 88883] | – |
| 9.2 | O=C(O)CCc1cccnc1 [Ligand 89720] | – |
| 13.1 | Cc1cc(C)c(N)c(C(=O)O)c1 [Ligand 90444] | Inhibition of JS-81 Binding (%) ([1]; 50 μM ligand): 0%; Inhibition of JS-81 Binding (%) ([1]; 100 μM ligand): 0%; Inhibition of JS-81 Binding (%) ([1]; 400 μM ligand): 24% |
| 7.2 | O=C(O)C(Cc1ccccc1-c1ccccc1)C(=O)O [Ligand 94914] | – |
| 4.2 | CCCCNCC1CCCO1 (stereo not drawn) [Ligand 97538] | – |
| 11.6 | O=C(O)c1cc(O)ccc1/N=N/c1ccccc1 [Ligand 106863] | Inhibition of JS-81 Binding (%) ([1]; 50 μM ligand): 0%; Inhibition of JS-81 Binding (%) ([1]; 100 μM ligand): 0%; Inhibition of JS-81 Binding (%) ([1]; 400 μM ligand): 19% |
| 10.2 | NC(=O)NC(=O)c1nccnc1C(=O)O [Ligand 117922] | Inhibition of JS-81 Binding (%) ([1]; 50 μM ligand): 0%; Inhibition of JS-81 Binding (%) ([1]; 100 μM ligand): 12%; Inhibition of JS-81 Binding (%) ([1]; 400 μM ligand): 26% |
| 8.3 | O=C(O)c1ccc(OCCOc2ccccc2)cc1 [Ligand 120631] | – |
| 10 | NS(=O)(=O)c1ccc(/N=N/c2c(O)c(C(=O)O)cc3ccccc23)cc1 [Ligand 134137] | Inhibition of JS-81 Binding (%) ([1]; 50 μM ligand): 0%; Inhibition of JS-81 Binding (%) ([1]; 100 μM ligand): 6%; Inhibition of JS-81 Binding (%) ([1]; 400 μM ligand): 26% |
| 2.5 | CCNc1nc(Cl)nc(-c2cn(-c3ccccc3)c3ccccc23)n1 [Ligand 142446] | – |
| 4.1 | O=C(O)/C=C\C(=O)Nc1cccc2cccnc12 [Ligand 144958] | Inhibition of JS-81 Binding (%) ([1]; 50 μM ligand): 0%; Inhibition of JS-81 Binding (%) ([1]; 100 μM ligand): 54%; Inhibition of JS-81 Binding (%) ([1]; 400 μM ligand): 12% |
| 2.9 | CC1=CC(=O)CC(C)(C)C1(O)/C=C/C(C)=C/C(=O)O (stereo not drawn) [Ligand 148832] | – |
| 2.6 | COc1cc(/N=N/c2ccccc2C(=O)O)ccc1O [Ligand 153172] | – |
| 7.4 | Cc1ccc(C)c(C(=O)CCC(=O)O)c1 [Ligand 215276] | – |
| 9.3 | Cc1cc(N2CCN(C)CC2)n2nc(-c3ccc(Cl)cc3)nc2n1 [Ligand 252359] | – |
| 3.4 | CCOc1cccc2cc(C(N)=O)c(=N)oc12 [Ligand 263636] | – |
| 5.9 | O=C(O)c1ccccc1NCc1ccco1 [Ligand 331931] | – |
| 12.6 | N=C(N)NC(=S)Nc1ccc(Cl)cc1 [Ligand 403374] | – |
| 4.1 | CCCCCCC(C)OC(=O)c1ccccc1C(=O)O (stereo not drawn) [Ligand 524615] | – |
| 4.1 | O=C(Nc1ccc(Br)c2ccccc12)c1ccc2ccccc2c1O [Ligand 601359] | – |
| – | NC(=O)c1ccc2c(c1)S(=O)(=O)c1ccccc1C2=O [Ligand 689002, 9-Oxo-9H-thioxanthene-3-carboxamide 10,10-dioxide] | inhibition at 50 µM ([1]; 50 μM ligand): 0%; inhibition at 100 µM ([1]; 100 μM ligand): 0%; inhibition at 400 µM ([1]; 400 μM ligand): 14% |

| Compound | Binding (RU) (recombinant CD81-LEL) | further results |
| --- | --- | --- |
| c1cncc(C2CCCCN2)c1 (stereo not drawn) [Ligand 87504] | 57.9 | Inhibition of JS-81 Binding (%) ([1]; 50 μM ligand): 0%; Inhibition of JS-81 Binding (%) ([1]; 100 μM ligand): 6%; Inhibition of JS-81 Binding (%) ([1]; 400 μM ligand): 20% |
